Test [1] has as its system recombinant Y. lipolytica (Y. lipolytica-GDH2). Nature of the test: Intracellular glutamate content of recombinant strain fermented with L-methionine imide. It is filed as cell-based, Yarrowia lipolytica. As to the method:
Determination of GDH catalytic activity and intracellular amino acid content: cells were collected by centrifugation in the exponential growth phase and washed by 0.9% saline, then suspended by 10 mL buffer (0.1 M KH2PO4-K2HPO4, 1 mM EDTA, 0.01 mM DTT, pH 7.5). Pickling glass beads was added for grinding for 5 min at 4° C., and then centrifuged at 13000×g for 10 min. The supernatant was used for the determination of catalytic activity of GDH and the intracellular amino acid content.
Intracellular glutamate and glutamine was determinated by the following steps: 200 μl cell disruption supernatant and 800 μL 5% trichloroacetic acid was sequentially added to an 1 mL EP tube and standed for 5 min. 1 mL sample was filtered by 0.22 μm aqueous filter head and then centrifuged at 10000 rpm for 10 min. The amino acid content of the treated sample was measured by HPLC.
The HPLC conditions were as follows: pre-column derivatization of sample was carried out by […] (OPA) and 9-Fluorenylmethyl Chloroformate. […]
The wild type Y. lipolytica WSH-Z06 and the recombinant strain Y. lipolytica-GDH2 were incubated in 500 mL flasks with 50 mL fermentation medium at 28° C., 200 rpm for 96 hours at the same time. […] The glutamate contents were quantified by the methods described above.

Test [2] shares this test system. Nature of the test: Extracellular α-KG accumulation of recombinant strain fermented with L-methionine imide. It is filed as cell-based, Yarrowia lipolytica. As for the experimental part:
Fermentation medium: 36.1 mg·L^−1 L-methionine imine, 100 g·L^−1 glycerol, 3 g·L^−1 (NH4)2SO4, 3 g·L^−1 KH2PO4, 1.2 g·L^−1 MgSO4·7H2O, 0.5 g·L^−1 NaCl, 0.1 g·L^−1 K2HPO4, 2×10^−7 g·L^−1 thiamine hydrochloride, pH 4.5, and then sterilized at 115° C. for 15 min. CaCO3 sterilized at 121° C. for 30 min was added to 20 g·L^−1 before inoculation.
Extracellular α-KG was quantified by HPLC. Appropriate supernatant of fermentation broth centrifuged at 13000×g was diluted 50-fold with ultrapure water and filtrated by 0.22 μm filter for HPLC analysis. The column was Aminex HPX-87H ion exchange column and 5 mmol·L^−1 sulfuric acid solution (550 μL concentrated sulfuric acid volumed to 2 L) filtrated by 0.22 μm filter and degassed was used as mobile phase. The velocity of flow was 0.6 mL·min^−1 with a column temperature at 35° C. and a injection volume of 10 μL. The wavelength of UV detector was 210 nm.
α-KG was produced as the method described above. The wild type Y. lipolytica WSH-Z06 and the recombinant strain Y. lipolytica-GDH2 were incubated in 500 mL flasks with 50 mL fermentation medium containing L-methionine imide at 28° C., 200 rpm for 144 hours at the same time to accumulate α-KG extracellular.

Results on one compound are retold here after US20160138057A1, “Methods for enhancing alpha-ketoglutarata production in Yarrowia lipolytica” (priority 2014, published 2016).

For `CSCC[C@H](N)C(N)=O` [L-methionine imide], the “content of glutamate intracellular” value in test [1] (0.2 mM L-methionine imide added during fermentation of the recombinant strain) is 0.99 μmol per mg dry cells weight (DCW). In test [1] (0.2 mM L-methionine imide, recombinant strain, versus wild type strain), the “increase of intracellular glutamate content” value worked out at 86.3%. Further, in test [2] (0.2 mM L-methionine imide, versus wild type strain), the “increase of extracellular α-KG accumulation” value amounted to 32.4%. Moreover, the “accumulation of α-KG extracellular” value in test [2] (fermentation medium containing L-methionine imide (0.2 mM), 28° C., 200 rpm, 144 hours) amounted to 19.2 g/L.
